# Measured values reported in the METLIN SMRT retention time set (Domingo-Almenara et al. 2019).
# Assay: gradient 5% acetonitrile 3 min, to 50% in 2 min, to 85% in 15 min, held 3 min, 100 µL/min
# Conditions: column: Zorbax Extend-C18 2.1 x 50 mm; eluents: water / acetonitrile, 0.1% formic acid
# How it was run: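 The mobile phases were water and acetonitrile, each with 0.1% formic acid, pumped at 100 μL/min through a Zorbax Extend-C18 column (2.1 × 50 mm, 1.8 μm). Pure standards were injected as mixtures of ~100 molecules and detected by a quadrupole time-of-flight mass spectrometer in positive and negative ionization mode. Retention time came from computationally picked adduct peaks, each inspected by hand.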
row,Structure (SMILES),RP-LC retention time [s]
1,Nc1nc(-c2ccc(S(=O)(=O)N3CCOCC3)cc2)cs1,620
2,O=C(NCc1ccccn1)C(=O)NCC1OCCN1S(=O)(=O)c1cccs1 (centres undefined),563
3,COc1ccccc1N1CCN(CCCCN2C(=O)c3ccccc3C2=O)CC1,751
4,CCc1ccccc1NC(=O)C1CCc2sc(C(=O)N(C)C)cc2C1 (centres undefined),738
5,COC(=O)c1ccc2nc(NC(=O)c3cc(Cl)ccc3Cl)sc2c1,965
6,CN(C)c1ccc(CNC(=O)c2cc3n(n2)CC(C)(C(=O)NCc2ccc(F)cc2)N(C)C3=O)cc1 (centres undefined),610
7,O=C(NC1CC1)c1cnn2c(-c3ccccn3)ccnc12,687
8,CC(C)CNC(=O)c1n[nH]c2c1CCCCCC2,850
9,COc1ccc(CNC(=O)Cc2nnc(-c3ccsc3)o2)c(OC)c1,692
10,CC(C)N1CCN(Cc2ccc(C(=O)NCCC3=CCCCC3)cc2)C(=O)C1=O,760
11,Cc1ccc(-c2ncccc2CNS(=O)(=O)c2ccc(C#N)cc2)cc1,688
12,CCN1C(=O)COc2cc(-c3noc(C(=O)NC4CC4)n3)ccc21,773
13,CC(C)OCCCNC(=O)Cn1nc2c(cc1=O)CCCCC2,698
14,O=C(NCCCN1CCCC1=O)c1nc(Nc2ccc(F)cc2)c2ccccc2n1,636
15,COc1ccc(S(=O)(=O)N2CCCC(C(N)=O)C2)cc1Cl (centres undefined),701
16,O=C(NCc1ccccc1F)c1ccc2c(c1)nc1n2CCN(C2CCCCC2)C1=O,788
17,CC(=O)N1N=C(c2ccccc2NS(C)(=O)=O)CC1c1ccc2ncccc2c1 (centres undefined),599
18,COC(=O)c1ccc(NC(=O)Cn2nc3nc(N4CCCCC4C)ccn3c2=O)cc1 (centres undefined),778
19,CC(=O)Nc1ccc(SCC(=O)Nc2ccc(OC(F)(F)F)cc2)nn1,745
20,CCCN1C(=O)c2cccnc2Sc2cc(C(=O)N3CCN(CC)CC3)ccc21,594
21,Cc1cc(NS(=O)(=O)c2cc(-c3ccn[nH]3)sc2C)ccc1Br,908
22,CSc1ncc(C(=O)NC2CC2)c(N)n1,543
23,CCCN1CCN(C(=O)c2nc(N3CCSCC3)c3cnn(C)c3n2)CC1,576

row,Structure (SMILES),RP-LC retention time [s]
1,Cc1ccc(C)c(Nc2c(-c3ccc(Cl)cc3)nc3ncccn23)c1,954
2,CCNc1nc(N2CCCC2)nc(-n2cnc(SC)n2)n1,885
3,CCN(CC)S(=O)(=O)c1ccc(C)c(-c2nnc(-c3ccccc3Cl)o2)c1,1140
4,CC(C)CCNC(=O)c1ccc(-c2nc3cccnc3n2C2CCCCC2)cc1,1020
5,O=C(NCCCN1CCOCC1)C1CCCN(c2nc3ccccc3n(Cc3ccccc3)c2=O)C1 (centres undefined),720
6,CCc1noc(C2CCCCN2Cc2cc(F)ccc2F)n1 (centres undefined),939
7,O=C1NC2(CCN(C(=O)Nc3ccc4c(c3)OCO4)CC2)N=C1c1ccccc1,746
8,COCC(C)(O)CNC(=O)c1ccsc1 (centres undefined),581
9,O=c1c2ccccc2n(Cc2nc(-c3ccc(Br)cc3)no2)c(=O)n1CC1CCCO1 (centres undefined),1120
10,Cc1cc(NC(=O)COc2cccc3c(=O)n(C)ccc23)no1,660
11,CCOCCCNC(=O)N1CC(Oc2ccc(-c3nc(-c4ccccc4)no3)cc2)C1,985
12,CCc1nn2c(CNC(=O)Cc3ccc(OC)cc3Cl)c(C)nc2s1,670
13,O=C(CCc1cn(Cc2ccccc2Cl)c2ccccc12)N1CCN(c2ccccn2)CC1,796
14,COC(=O)c1cnc(N2CCN(c3ccccc3OC)CC2)c2ccccc12,1030
15,CN1C(=O)C2CCCCN2c2ccc(C(=O)NCCCN3CCCCCC3)cc21 (centres undefined),627
16,Cc1ccc(NC(=O)NC2CCN(c3ccc(C)cc3)C2=O)cc1 (centres undefined),853
17,CCN(CC)CCCNc1ccc(-c2nc(-c3cccc(F)c3)no2)cn1,707
18,CCc1cc(=O)n(CC(=O)Nc2ccc(OC)cc2)c(N2CCOCC2)n1,699
19,COc1ccccc1C(=O)Nc1cccc(Cl)c1,964
20,Cc1ccc(Cn2c(N3CCCC(C(=O)NCc4ccc(C)o4)C3)nc3ccsc3c2=O)cc1 (centres undefined),952
21,CCOc1ccccc1CNC(=O)c1cc(NC(C)=O)cc2nc(C)ccc12,653
22,Cc1ccc(NC(=O)Cn2nc3c(Oc4ccccc4C)nccn3c2=O)cc1F,825
23,Cc1c(C(=O)NCc2cccnc2)oc2c1C(=O)CC(C)(C)C2,560

row,Structure (SMILES),RP-LC retention time [s]
1,COc1ccc(NC(=O)c2cn3c(n2)CSCC3)c(C)c1,674
2,O=C(O)c1cc2cc(F)ccc2[nH]1,791
3,CCOc1ccc(S(=O)(=O)NC2CCN(c3ccc(=O)n(CC4CC4)n3)C2)cc1 (centres undefined),834
4,Cc1ccc(-c2noc(-c3ccc(NC(=O)c4ccc(Br)o4)cc3)n2)cc1,1290
5,COc1ccc(NC(=O)Nc2nc(CCC(=O)O)cs2)cc1,647
6,CCN1C[C@]2(OC(=O)c3ccccc3NC(C)=O)CCC(OC)[C@@]34C5C[C@@H]6C(OC)C[C@](O)([C@@H](CC23)[C@@H]14)C5(O)[C@H]6OC (some centres undefined),760
7,CC(C)n1cnc(S(=O)(=O)N2CCC(C(=O)Nc3cccc(-c4ccno4)c3)CC2)c1,753
8,CC(C)(C)c1ccc(O)c(NC(=O)c2cn(-c3ccc(S(=O)(=O)N4CCOCC4)cc3)cn2)c1,966
9,COc1ccccc1CNC(=O)Cn1c(N2CCOCC2)nc(C)cc1=O,654
10,COc1ccc(-c2nc(C)cc(C)c2CNC(=O)C2CCCC2)cc1,638
11,COc1ccc(-c2nc3cnccn3c2Nc2cc(C)cc(C)c2)cc1,952
12,Cc1ccc(NC(=O)Nc2ccc(NC(=O)N3CCCC(C(=O)NC(C)C)C3)cc2)cc1 (centres undefined),760
13,CC(O)(CNC(=O)c1cccc(C(F)(F)F)c1)c1ccccc1 (centres undefined),808
14,Cn1c(C(=O)NCC2CCCO2)cc2c(=O)oc3ccccc3c21 (centres undefined),713
15,CCCc1noc(C2CCCCN2CC(=O)Nc2ccc(F)c(Cl)c2)n1 (centres undefined),1110
16,Cc1ccnc(NS(=O)(=O)c2ccc(N)cc2)n1,652
17,COc1cc(Cl)c(C)cc1NC(=O)C1CCCN(c2ncnc3c2nc2n3CCCCC2)C1 (centres undefined),996
18,Cn1cnc2c(F)c(Nc3ccc(Br)cc3Cl)c(C(=O)NOCCO)cc21,789
19,Cc1cc(F)ccc1NC(=O)Cn1c(N)nc(C)c(C)c1=O,617
20,O=C1NC2(CCN(C(=O)NCc3ccccc3)CC2)Oc2ccccc21,963
21,CC(C)CN1CCC(N2CC(COc3ccccc3)C3(CCOCC3)C2)CC1 (centres undefined),574
22,CCOc1ccc(NC(=O)c2[nH]c3cc(C)sc3c2CN2CCOCC2)cc1,1160
23,COc1ncccc1C(=O)NCCCn1nc(-c2ccc(F)cc2)ccc1=O,734
